According to patent US20260263402A1, “SYNERGISTIC COMBINATIONS OF REGULATED NECROSIS INHIBITORS WITH N-ACETYLCYSTEINE” (priority 2022, published 2026):

Tests used:
[1] = tested on: SH-SY5Y cells; experiment: Cell viability (MTS) of SH-SY5Y cells treated with erastin (ferroptosis), neurotoxicity model; assay type: cell-based, Human; conditions: 10 μM erastin 24 h
Description: (§1) The SH-SY5Y neuronal cells (Human Neuroblastoma Cell line) and HT-22 cells (Mouse Hippocampal Neuronal Cell line) were maintained in standard DMEM with GlutaMAX medium (GIBCO), supplemented with 10% fetal bovine serum (GIBCO), at 37° C. in presence of 5% CO2.
(§2) SH-SY5Y, LLC-PK1, ARPE-19 and HT22 cells were seeded in 96-well plates at a density of 10 000 or 5000 cells per well respectively, following overnight incubation. Cells were treated with 10 μM (SH-SY5Y cells) or 0.5 μM (HT22 cells) of erastin or 2 μM of RSL3 (LLCPK1) or 10 mM of sodium iodate (ARPE-19 cells) for 24 h.
(§3) Erastin and RSL3 was purchased from Selleck Chemical and sodium iodate from Sigma Aldrich. Cell viability was assessed by MTS assay (CellTiter 96@D AQueous Non-Radioactive Cell Proliferation Assay; Promega, Fitchburg, WI, USA) according to the manufacturer's instructions. This assay is based on the reduction of the 3-(4,5-dimethylthiazol-2-yl)-5-(3-carboxymethoxyphenyl)-2-(4-sulfophenyl)-2H-tetrazolium (MTS) by viable cells to form a colored formazan product. After treatment, cells were incubated 3 h at 37° C., 5% CO2 with MTS. The absorbance was measured using a microplate reader at 490 and 630 nm and the percentage of viability was calculated by dividing the absorbance of testing compound by the absorbance of DMSO treated cells (control).
(§4) Cells (HT-22, SHSY-5Y, LLC-PK1 and ARPE 19) were seeded in a 96-well plate in their respective medium overnight. The next day they were treated with NAC or a derivative thereof including NACA or N-acetylcysteine ethyl ester (compound A), with inhibitor compound (compound B) or with a combination of the two compounds. The analysis of the effects of the combination of the association of compound A (NAC or a derivative thereof including NACA and N-acetylcysteine ethyl ester) with another compound B is based on the independence model of Bliss. In this approach, the effect of compound alone (EA or EB) or in combination is expressed as a probability (0≤E≤1). The combined effect of the compounds is defined by:
(§5) wherein EA and EB represent the effects of compound A and compound B respectively, and EAB the combined effect of the combination of A and B (expected effect on histogram). Calculation index CI is calculated as follows: CI=(EA+EB−EA*EB)/EAB wherein CI is synergistic, antagonistic or additive when CI is under, above or equal to 1 respectively [Duarte et al., Current Research in Pharmacology and Drug Discovery, 2022].
Cell death by ferroptosis was induced by erastin [Dixon et al., Cell, 2012, 149(5), 1060-1072] in both cell lines. Erastin is a well described ferroptosis inducer and also a molecular tool to study neuronal pathologies [Lewerenz et al., Front. Neurosci., 2018, 12: 214].

[2] = tested on: HT-22 cells; experiment: Cell viability (MTS) of HT22 cells treated with erastin (ferroptosis), neurotoxicity model; assay type: cell-based, Mouse; conditions: 0.5 μM erastin 24 h
Description: as §1, §2, §3
Cells (HT-22, SHSY-5Y, LLC-PK1 and ARPE 19) were seeded in a 96-well plate in their respective medium overnight. […] In this approach, the effect of compound alone (EA or EB) or in combination is expressed as a probability (0≤E≤1). […]
as §5, with “2022]. […]” for “2022].”

[3] = tested on: LLC-PK1 cells; experiment: Cell viability (MTS) of LLC-PK1 cells treated with RSL3; assay type: cell-based, Pig; conditions: 2 μM RSL3 24 h
Description: The LLC-PK1 cells (Pig Kidney Epithelial cells) were cultured in DMEM/F12(GIBCO), supplemented with 10% fetal bovine serum (GIBCO), at 37° C. in presence of 5% CO2.
as §2, §3
Cells (HT-22, SHSY-5Y, LLC-PK1 and ARPE 19) were seeded in a 96-well plate in their respective medium overnight. The next day they were treated with NAC or a derivative thereof including NACA or N-acetylcysteine ethyl ester (compound A), with inhibitor compound (compound B) or with a combination of the two compounds. […] In this approach, the effect of compound alone (EA or EB) or in combination is expressed as a probability (0≤E≤1). […]
as §5

[4] = tested on: mice model of APAP intoxication; experiment: In vivo mice model of APAP intoxication, plasma ALT; set-up: species or system C57Bl/6J male mice; conditions: for ALT plasma level: 8 h after APAP, APAP only ~3000, control ~100 IU/L
Description: Nine-week-old C57Bl/6J male mice were purchased from Janvier Labs (Le Genest St Isle, France). After one week of acclimatization in the animal house, mice were fasted overnight before experimentation. Acetaminophen (APAP) was purchased from Sigma-Aldrich (A70-85-100 g, batch #SCLF8273) and diluted at 20 mg/mL in PBS (preheated at 45° C.). Acetaminophen intoxication was induced in mice by intraperitoneal (i.p.) injection of APAP (400 mg/kg). One hour after APAP injection, mice were treated with inhibitors by intraperitoneal injection. N-acetylcysteine (NAC, A9165-25 g, Sigma-Aldrich, batch #SLCJ1628), the reference treatment for paracetamol intoxication, was diluted at 40 mg/mL in PBS Tween80 5% and injected via intraperitoneal route at a dose of 200 mg/kg. Compound 7 was diluted at 1 mg/ml or 2 mg/ml in PBS Tween80 5% and injected by intraperitoneal injection with increasing concentrations (2.5, 5 or 10 mg/kg) or in combination with NAC (200 mg/kg). There were two groups of control mice: the first one was injected via i.p. route with PBS Tween80 5% (Tween80 5%) and the second group, treated with APAP, was administered one hour after APAP with PBS Tween80 5% (APAP-Tween80 5%) via i.p.. Mice were slaughtered eight hours after APAP injection. Blood and liver were collected.
Serum alanine aminotransferase (ALT) plasma levels were measured according to the International Federation of Clinical Chemistry and Laboratory Medicine primary reference procedures using an Olympus AU2700 Autoanalyser (Olympus Optical).
Results were expressed as means SEM. Mean differences between two experimental groups were assessed using the non-parametric Mann-Whitney U-test. […] Calculated P values are integrated on histograms and graphs. Significance is shown as follows: $ P<0.05, $$ P<0.01, $$$ P<0.001 and $$$ P<0.0001 (comparison between APAP mice and APAP mice treated with NAC and/or compound 7); * P<0.05, ** P<0.01, *** P<0.001 and **** P<0.0001 (comparison between treated groups).
Nine Groups of Mice were Studied: • Tween80 5%, n=15 • APAP (400 mg/kg)+Tween 80 5%, n=31 • APAP (400 mg/kg)+NAC (200 mg/kg), n=15 • APAP (400 mg/kg)+compound 7 (2.5 mg/kg), n=23 • APAP (400 mg/kg)+compound 7 (5 mg/kg), n=21 • APAP (400 mg/kg)+compound 7 (10 mg/kg), n=21 • APAP (400 mg/kg)+compound 7 (2.5 mg/kg)+(NAC 200 mg/kg), n=9 • APAP (400 mg/kg)+compound 7 (5 mg/kg)+NAC (200 mg/kg), n=9 • APAP (400 mg/kg)+compound 7 (10 mg/kg)+NAC (200 mg/kg), n=13

[5] = tested on: ARPE-19 cells; experiment: Cell viability (MTS) of ARPE-19 cells treated with sodium iodate, model of eye disease; assay type: cell-based, Human; conditions: 10 mM sodium iodate 24 h
Description: The ARPE-19 cells (Human Retinal pigment epithelial cell line) were cultured in standard DMEM/F12 medium (GIBCO), supplemented with 10% fetal bovine serum (GIBCO), at 37° C. in presence of 5% CO2.
as §2, §3, §4, §5
Age-related macular degeneration, or AMD, is characterized by vision loss caused by degeneration of the central cells of the retina, called the macula. […] One model used to study retinal cell death is that of human ARPE-19 cells, a retinal pigment epithelial cell line, in the presence of sodium iodate (NaIO3, a potent oxidizing agent) [Hanus et al. Cell Death Discov. 2016, 2, 16054][Chan et al., J. Biomed. Sci., 2019, 26:40].

[6] = NAC 200 mg/kg with compound 7 10 mg/kg i.p. one hour after APAP 400 mg/kg

For `Oc1ccc(-c2cc3ccccc3[nH]2)cc1` [Compound 1], the “effect on viability, combined with NAC (Bliss model)” value (“effect … with NAC (Bliss model)” below) ([1]; FIG. 4, 1 μM cmpd 1 + 100 μM NAC) was “synergistic effect”, the “effect on viability, compound alone” value ([1]; FIG. 4, 1 μM cmpd 1 alone) was “significant effect” and the “effect on viability, combined with N-acetylcysteine ethyl ester (Bliss model)” value ([1]; FIG. 15, 2.5 μM Compound 1 + 100 μM N-acetylcysteine ethyl ester) was “synergistic effect”. The “effect on viability, compound alone” value ([1]; FIG. 15, 2.5 μM Compound 1 alone) was “significant effect”, the “effect … with NAC (Bliss model)” value ([2]; FIG. 7, 5 μM cmpd 1 + 100 μM NAC) was “synergistic effect” and the “effect … with NAC (Bliss model)” value ([3]; FIG. 11, 1 μM Compound 1 + 500 μM NAC) was “synergistic effect”.
For `Oc1ccc(-c2cc3cccnc3[nH]2)cc1` [Compound 7, sibiriline], the “effect on viability, combined with N-acetylcysteine ethyl ester (Bliss model)” value ([1]; FIG. 14, 10 μM Compound 7 + 100 μM N-acetylcysteine ethyl ester) was “synergistic effect”, the “effect on viability, compound alone” value ([1]; FIG. 14, 10 μM Compound 7 alone) was “significant effect” and the “effect … with NAC (Bliss model)” value ([2]; FIG. 5, 25 μM cmpd 7 + 100 μM NAC) was “synergistic effect”. The “effect … with NAC (Bliss model)” value ([3]; FIG. 10, 2.5 μM Compound 7 + 500 μM NAC) was “synergistic effect”, the “protective effect against APAP toxicity, combination versus NAC alone or compound 7 alone” value ([4]; NAC 200 mg/kg in combination with compound 7 2.5, 5 or 10 mg/kg i.p., FIG. 9a-c) was “better and synergistic protective effect” and the “protection against APAP toxicity” value [4, 6] was “almost complete protection”. The ALT plasma level [4, 6] was ~ 200 IU/L, the ALT plasma level ([4]; compound 7 10 mg/kg i.p. one hour after APAP 400 mg/kg i.p.) was ~ 1000 IU/L and the “effect on ALT plasma levels, compound alone” value ([4]; compound 7 2.5, 5 or 10 mg/kg i.p. one hour after APAP 400 mg/kg, maximum effect at 10 mg/kg) was “reducing ALT plasma levels in a dose-dependent manner”.
In the case of `Oc1ccc(-c2cc3ccc(Cl)nc3[nH]2)cc1` [Compound 37], the “effect … with NAC (Bliss model)” value ([2]; FIG. 6, 50 μM cmpd 37 + 100 μM NAC) is reported as “synergistic effect”.
With `NCCOCCOc1ccc(-c2cc3cccnc3[nH]2)cc1` [Compound 45] the “effect … with NAC (Bliss model)” value ([5]; FIG. 1, 10 μM cmpd 45 + 100 μM NAC) was “synergistic effect” and the “effect on viability, compound alone” value ([5]; FIG. 1, 10 μM cmpd 45 alone) was “significant effect”.
In the case of `COc1cc(O)c2c(c1)OC(O)(c1ccc(OCc3ccccc3)cc1)CC2=O` (stereo not shown) [Compound 46], the “effect … with NAC (Bliss model)” value ([5]; FIG. 2, 5 μM cmpd 46 + 50 μM NAC) is reported as “synergistic effect”, the “effect on viability, compound alone” value ([5]; FIG. 2, 5 μM cmpd 46 alone) is reported as “significant effect” and the “effect on viability, combined with NACA (Bliss model)” value ([5]; FIG. 13, 10 μM cmpd 46 + 125 μM NACA) is reported as “synergistic effect”. For the same compound, the “effect on viability, compound alone” value ([5]; FIG. 13, 10 μM cmpd 46 alone) was “significant effect”, the “effect … with NAC (Bliss model)” value ([1]; FIG. 3, 25 μM cmpd 46 + 100 μM NAC) was “synergistic effect” and the “effect on viability, compound alone” value ([1]; FIG. 3, 25 μM cmpd 46 alone) was “significant effect”. The “effect on viability, combined with N-acetylcysteine ethyl ester (Bliss model)” value ([1]; FIG. 16, 25 μM Compound 46 + 100 μM N-acetylcysteine ethyl ester) was “synergistic effect”, the “effect on viability, compound alone” value ([1]; FIG. 16, 25 μM Compound 46 alone) was “significant effect” and the “effect … with NAC (Bliss model)” value ([3]; FIG. 12, 25 μM Compound 46 + 500 μM NAC) was “synergistic effect”.
For `CC(=O)N[C@@H](CS)C(=O)O` [NAC, N-acetylcysteine], the ALT plasma level ([4]; NAC 200 mg/kg i.p. one hour after APAP 400 mg/kg i.p.) was ~ 1300 IU/L.
